Experimental data as given in ChEMBL document CHEMBL1201862, “PubChem BioAssay data set” (2004).
The source made the active and inactive calls.

How the values were obtained:
[1] = target: Peroxisome proliferator-activated receptor gamma/Nuclear receptor coactivator 2 (Homo sapiens, UniProt P37231); assay type: functional;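 also: agonist potency for raising coactivator recruitment to the receptor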
[2] = target: T1, Heat shock factor protein 1 (Mus musculus, UniProt P38532); test: HSF1 potentiators in luciferase reporter cells, confirmation, cell-based, NIH3T3, luminescence, dose retest (AID 435004); assay type: functional;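 also: stress induced by proteasome inhibitor MG132 added 30 min after compound; luciferase reporter driven by HSF1 response element in NIH3T3 cells; actives raise luminescence as potentiators of the MG132 stress response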
T1 sequence (P38532 whole entry): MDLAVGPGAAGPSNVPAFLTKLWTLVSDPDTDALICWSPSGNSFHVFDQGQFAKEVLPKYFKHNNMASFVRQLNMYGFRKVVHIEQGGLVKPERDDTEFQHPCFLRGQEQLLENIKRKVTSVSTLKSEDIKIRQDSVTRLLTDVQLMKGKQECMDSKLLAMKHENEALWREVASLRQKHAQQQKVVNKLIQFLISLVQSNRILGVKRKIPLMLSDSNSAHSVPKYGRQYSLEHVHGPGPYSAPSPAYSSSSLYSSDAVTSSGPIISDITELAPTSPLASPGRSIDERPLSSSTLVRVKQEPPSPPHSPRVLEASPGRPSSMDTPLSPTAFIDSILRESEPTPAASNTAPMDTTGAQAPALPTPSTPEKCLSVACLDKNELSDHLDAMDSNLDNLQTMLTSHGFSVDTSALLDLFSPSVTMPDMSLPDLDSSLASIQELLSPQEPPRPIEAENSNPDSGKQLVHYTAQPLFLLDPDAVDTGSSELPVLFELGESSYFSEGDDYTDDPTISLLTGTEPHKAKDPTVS

[3] = target: Peroxisome proliferator-activated receptor gamma/Nuclear receptor coactivator 1 (Homo sapiens, UniProt P37231); assay type: functional;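 also: agonist potency as compounds enhance coactivator SRC-1 recruitment to PPARgamma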
Peroxisome proliferator-activated receptor gamma/Nuclear receptor coactivator 1, sequence (P37231 whole entry): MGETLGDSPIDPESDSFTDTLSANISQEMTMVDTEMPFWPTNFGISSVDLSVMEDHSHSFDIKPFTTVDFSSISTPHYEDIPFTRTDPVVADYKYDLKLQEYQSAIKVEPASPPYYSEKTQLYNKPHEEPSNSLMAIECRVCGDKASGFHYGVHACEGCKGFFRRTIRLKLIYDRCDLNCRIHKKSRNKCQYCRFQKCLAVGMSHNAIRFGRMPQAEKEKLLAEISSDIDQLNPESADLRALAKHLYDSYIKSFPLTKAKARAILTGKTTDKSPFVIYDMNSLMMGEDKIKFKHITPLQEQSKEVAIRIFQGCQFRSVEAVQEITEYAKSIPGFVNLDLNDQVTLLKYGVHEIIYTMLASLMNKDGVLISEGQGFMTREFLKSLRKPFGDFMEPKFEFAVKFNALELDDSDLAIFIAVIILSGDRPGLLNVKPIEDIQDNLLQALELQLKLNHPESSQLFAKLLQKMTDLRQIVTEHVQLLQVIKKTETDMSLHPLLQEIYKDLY
Peroxisome proliferator-activated receptor gamma/Nuclear receptor coactivator 1, sequence (Q15788 whole entry, further chain): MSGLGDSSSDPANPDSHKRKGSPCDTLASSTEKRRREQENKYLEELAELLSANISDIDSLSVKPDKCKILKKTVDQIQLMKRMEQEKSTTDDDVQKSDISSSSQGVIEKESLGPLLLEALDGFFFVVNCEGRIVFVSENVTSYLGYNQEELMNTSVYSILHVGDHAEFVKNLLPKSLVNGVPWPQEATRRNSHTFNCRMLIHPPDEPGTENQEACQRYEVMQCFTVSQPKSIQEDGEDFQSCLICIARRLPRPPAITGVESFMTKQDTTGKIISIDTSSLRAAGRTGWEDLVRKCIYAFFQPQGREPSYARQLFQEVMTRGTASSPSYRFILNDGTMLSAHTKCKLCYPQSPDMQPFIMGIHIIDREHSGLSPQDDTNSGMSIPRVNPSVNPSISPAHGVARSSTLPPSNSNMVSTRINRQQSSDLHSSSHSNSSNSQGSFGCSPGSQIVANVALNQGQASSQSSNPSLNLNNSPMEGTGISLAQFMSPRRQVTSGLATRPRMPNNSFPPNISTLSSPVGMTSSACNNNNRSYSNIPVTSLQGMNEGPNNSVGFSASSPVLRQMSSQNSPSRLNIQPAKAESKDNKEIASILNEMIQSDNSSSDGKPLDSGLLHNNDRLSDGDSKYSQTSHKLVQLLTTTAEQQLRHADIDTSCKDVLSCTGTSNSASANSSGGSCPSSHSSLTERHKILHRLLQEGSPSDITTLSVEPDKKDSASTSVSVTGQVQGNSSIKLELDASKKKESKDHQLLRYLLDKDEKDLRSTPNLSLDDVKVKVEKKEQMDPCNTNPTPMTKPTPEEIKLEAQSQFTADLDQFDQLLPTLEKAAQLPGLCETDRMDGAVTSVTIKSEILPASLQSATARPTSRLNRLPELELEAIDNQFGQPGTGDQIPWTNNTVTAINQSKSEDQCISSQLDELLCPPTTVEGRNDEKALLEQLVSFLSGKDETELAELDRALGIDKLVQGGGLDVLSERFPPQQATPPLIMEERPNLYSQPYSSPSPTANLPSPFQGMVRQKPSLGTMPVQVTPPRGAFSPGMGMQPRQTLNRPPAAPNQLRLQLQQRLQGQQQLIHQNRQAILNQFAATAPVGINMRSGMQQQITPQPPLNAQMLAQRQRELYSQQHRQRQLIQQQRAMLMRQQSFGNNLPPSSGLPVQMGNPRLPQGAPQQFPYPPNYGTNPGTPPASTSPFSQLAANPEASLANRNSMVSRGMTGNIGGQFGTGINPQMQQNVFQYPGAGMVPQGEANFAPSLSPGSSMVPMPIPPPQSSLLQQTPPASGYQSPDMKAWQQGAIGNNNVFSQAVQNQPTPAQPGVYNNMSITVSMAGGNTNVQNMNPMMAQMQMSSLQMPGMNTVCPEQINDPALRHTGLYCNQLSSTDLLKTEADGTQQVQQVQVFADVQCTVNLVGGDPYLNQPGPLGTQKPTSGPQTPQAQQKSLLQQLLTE

[4] = target: Peroxisome proliferator-activated receptor gamma/Nuclear receptor coactivator 3 (Homo sapiens, UniProt P37231); assay type: functional;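 also: agonist potency for raising coactivator recruitment to the receptor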
[5] = target: Cytochrome P450 2C19 (Homo sapiens, UniProt P33261); test: qHTS Assay for Inhibitors and Substrates of Cytochrome P450 2C19. [Related pubchem assays: 410 ]; assay type: ADME; conditions: read-out: Potency
[6] = target: Cytochrome P450 2C9 (Homo sapiens, UniProt P11712); conditions: Potency
[7] = C. albicans growth with fluconazole, confirmation, fluorescence, retest (AID 2467); assay type: functional, cell-based
[8] = NIH-3T3 fibroblast cytotoxicity, dose response, cytotoxicity control, cell-based, fluorescence, Alamar Blue, secondary assay (AID 2327); assay type: functional;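 also: NIH-3T3 mouse fibroblasts cultured with fluconazole at 8 µg/mL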
[9] = inhibitors of Bluetongue virus cytopathic effect, confirmation, arbovirus, BSR cells (AID 1250); assay type: functional;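 also: protection from viral cytopathic effect measured as cell viability by ATP luminescence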
[10] = target: T2, Alkaline phosphatase, tissue-nonspecific isozyme (Homo sapiens, UniProt P05186)
T2 sequence (P05186 whole entry): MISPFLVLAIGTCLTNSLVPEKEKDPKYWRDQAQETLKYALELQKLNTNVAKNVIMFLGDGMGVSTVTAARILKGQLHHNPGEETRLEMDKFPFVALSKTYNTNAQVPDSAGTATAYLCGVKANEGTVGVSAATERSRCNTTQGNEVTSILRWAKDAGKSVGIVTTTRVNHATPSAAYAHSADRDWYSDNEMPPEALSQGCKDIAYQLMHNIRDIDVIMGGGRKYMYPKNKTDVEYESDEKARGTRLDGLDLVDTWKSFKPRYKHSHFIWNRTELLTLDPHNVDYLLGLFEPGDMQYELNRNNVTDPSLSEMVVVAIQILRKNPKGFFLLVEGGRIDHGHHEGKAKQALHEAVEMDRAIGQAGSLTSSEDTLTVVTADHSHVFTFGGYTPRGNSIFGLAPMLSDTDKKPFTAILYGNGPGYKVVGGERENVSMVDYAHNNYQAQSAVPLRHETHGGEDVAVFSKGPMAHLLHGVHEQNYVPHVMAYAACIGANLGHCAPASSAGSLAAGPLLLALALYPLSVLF

[11] = target: T3, Short transient receptor potential channel 4 (Mus musculus, UniProt Q9QUQ5); test: mouse TRPC4 channel activators, dose response, cell-based, HEK293 TRPC4/mu-opioid, Fluo-4 calcium (AID 434937); assay type: functional
T3 sequence (Q9QUQ5 whole entry): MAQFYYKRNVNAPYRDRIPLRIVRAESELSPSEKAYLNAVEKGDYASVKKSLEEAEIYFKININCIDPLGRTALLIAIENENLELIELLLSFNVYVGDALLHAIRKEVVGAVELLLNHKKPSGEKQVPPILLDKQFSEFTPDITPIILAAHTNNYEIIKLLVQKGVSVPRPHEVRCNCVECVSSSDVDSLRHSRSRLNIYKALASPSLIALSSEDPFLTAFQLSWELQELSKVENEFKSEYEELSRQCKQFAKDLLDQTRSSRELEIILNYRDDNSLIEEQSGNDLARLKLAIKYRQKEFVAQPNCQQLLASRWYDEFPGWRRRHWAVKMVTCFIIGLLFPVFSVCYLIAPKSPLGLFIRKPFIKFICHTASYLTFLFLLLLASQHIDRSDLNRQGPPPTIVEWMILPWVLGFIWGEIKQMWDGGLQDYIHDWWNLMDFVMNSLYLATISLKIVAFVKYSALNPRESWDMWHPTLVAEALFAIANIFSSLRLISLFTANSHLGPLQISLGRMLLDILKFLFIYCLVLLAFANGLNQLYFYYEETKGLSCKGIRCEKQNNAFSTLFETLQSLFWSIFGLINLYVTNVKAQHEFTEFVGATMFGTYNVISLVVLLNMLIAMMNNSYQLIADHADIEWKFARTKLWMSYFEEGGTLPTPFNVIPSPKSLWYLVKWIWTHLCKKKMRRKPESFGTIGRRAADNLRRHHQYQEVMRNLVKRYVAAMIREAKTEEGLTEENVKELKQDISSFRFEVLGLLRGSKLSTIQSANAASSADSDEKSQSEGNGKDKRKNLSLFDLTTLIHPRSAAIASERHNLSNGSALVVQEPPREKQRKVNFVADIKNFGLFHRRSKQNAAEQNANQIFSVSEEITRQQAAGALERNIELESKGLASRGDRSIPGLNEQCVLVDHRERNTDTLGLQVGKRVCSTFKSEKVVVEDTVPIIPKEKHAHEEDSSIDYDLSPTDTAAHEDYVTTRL

[12] = target: Sphingosine 1-phosphate receptor 2 (Homo sapiens, UniProt O95136); test: Dose Response Cell Based Assay for Agonists of the S1P2 Receptor of Purchased Analogues. [Related pubchem assays: 729, 843, 854, 736 ]; assay type: functional
[13] = cytotoxicity toward NIH3T3 fibroblasts, dose response, counter-screen, cell-based, ATP luminescence, mouse fibroblasts (AID 2010); assay type: functional;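 also: cells exposed to compound for about 90 hours before reading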
[14] = target: Voltage-gated inwardly rectifying potassium channel KCNH2 (Homo sapiens, UniProt Q12809); test: hERG protection from proarrhythmic block, potency, dose response, cell-based, thallium flux (AID 2121); assay type: ADME
Voltage-gated inwardly rectifying potassium channel KCNH2, sequence (Q12809 whole entry): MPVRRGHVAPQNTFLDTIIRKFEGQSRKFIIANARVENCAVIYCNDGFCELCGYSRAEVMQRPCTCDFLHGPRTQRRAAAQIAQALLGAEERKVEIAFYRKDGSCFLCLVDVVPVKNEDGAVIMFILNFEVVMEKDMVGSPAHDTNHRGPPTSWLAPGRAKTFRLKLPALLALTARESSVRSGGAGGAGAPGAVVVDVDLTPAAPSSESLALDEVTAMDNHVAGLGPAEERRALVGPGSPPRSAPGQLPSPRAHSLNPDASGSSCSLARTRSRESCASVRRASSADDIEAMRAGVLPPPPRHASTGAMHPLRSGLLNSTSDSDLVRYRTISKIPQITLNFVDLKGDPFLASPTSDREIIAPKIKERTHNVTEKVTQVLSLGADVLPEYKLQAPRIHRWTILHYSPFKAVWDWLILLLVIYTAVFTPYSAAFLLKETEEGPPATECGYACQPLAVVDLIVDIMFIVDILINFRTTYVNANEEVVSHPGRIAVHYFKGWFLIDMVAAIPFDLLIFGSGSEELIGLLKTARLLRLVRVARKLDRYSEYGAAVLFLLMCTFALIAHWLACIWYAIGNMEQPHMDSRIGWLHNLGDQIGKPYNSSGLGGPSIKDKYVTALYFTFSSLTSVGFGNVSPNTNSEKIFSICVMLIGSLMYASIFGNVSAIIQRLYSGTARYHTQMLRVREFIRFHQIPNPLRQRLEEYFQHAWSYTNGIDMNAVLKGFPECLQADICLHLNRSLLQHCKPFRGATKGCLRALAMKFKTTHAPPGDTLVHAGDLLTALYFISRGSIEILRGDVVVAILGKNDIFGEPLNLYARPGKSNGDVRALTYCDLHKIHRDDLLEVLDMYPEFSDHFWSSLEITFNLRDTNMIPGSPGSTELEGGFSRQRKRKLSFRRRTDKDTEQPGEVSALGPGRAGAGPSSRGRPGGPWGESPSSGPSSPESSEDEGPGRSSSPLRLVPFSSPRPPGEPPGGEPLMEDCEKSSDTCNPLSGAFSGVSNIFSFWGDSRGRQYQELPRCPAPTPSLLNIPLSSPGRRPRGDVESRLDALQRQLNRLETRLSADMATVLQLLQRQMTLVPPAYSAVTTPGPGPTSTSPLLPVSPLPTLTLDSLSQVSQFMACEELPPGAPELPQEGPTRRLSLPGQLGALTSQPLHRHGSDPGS

[15] = inhibitors of intracellular T. cruzi replication, confirmation, NIH3T3 host cells, beta-gal luminescence (AID 2044); assay type: functional, cell-based;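 also: intracellular parasites grown in NIH/3T3 mouse fibroblasts as host cells; luminescent beta-galactosidase reporter signal from transgenic T. cruzi replicating inside host cells; inhibitors lower the luminescence signal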
[16] = system: Salmon testes DNA; test: DNA intercalators displacing acridine orange, dose response, artefact control for KSHV LANA DNA-binding inhibitor project, biochemical, fluorescence polarization, cherry-picked samples, set 2 (AID 504727); parameters: species or system Salmonidae
[17] = system: HeLa; test: HeLa cell cytotoxicity, dose response, cytotoxicity control, 24 h, cherry-picked samples (AID 504726); assay type: functional, cell-based; conditions: Homo sapiens;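 also: potency for cytotoxicity as loss of luminescence signal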
[18] = target: T4, Bcl-2-like protein 10 (Homo sapiens, UniProt Q9HD36); test: displacers of TR3 peptide from Bcl-B, primary screen, selectivity assay for Bfl-1 inhibitor project, biochemical, fluorescence polarization, FITC-TR3 peptide (AID 748);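 also: fluorescence polarization from a fluorescein-labelled TR3 peptide binding purified Bcl-B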
T4 sequence (Q9HD36 whole entry): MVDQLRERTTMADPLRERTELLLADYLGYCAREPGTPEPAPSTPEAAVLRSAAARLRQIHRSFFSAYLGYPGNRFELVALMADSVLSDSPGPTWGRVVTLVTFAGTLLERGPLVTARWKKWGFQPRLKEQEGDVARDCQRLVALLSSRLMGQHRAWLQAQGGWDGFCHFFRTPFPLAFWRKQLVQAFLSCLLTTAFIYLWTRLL

Peroxisome proliferator-activated receptor gamma/Nuclear receptor coactivator 2, sequence (P37231 whole entry): as the sequence (P37231 whole entry) above
Peroxisome proliferator-activated receptor gamma/Nuclear receptor coactivator 2, sequence (Q15596 whole entry, further chain): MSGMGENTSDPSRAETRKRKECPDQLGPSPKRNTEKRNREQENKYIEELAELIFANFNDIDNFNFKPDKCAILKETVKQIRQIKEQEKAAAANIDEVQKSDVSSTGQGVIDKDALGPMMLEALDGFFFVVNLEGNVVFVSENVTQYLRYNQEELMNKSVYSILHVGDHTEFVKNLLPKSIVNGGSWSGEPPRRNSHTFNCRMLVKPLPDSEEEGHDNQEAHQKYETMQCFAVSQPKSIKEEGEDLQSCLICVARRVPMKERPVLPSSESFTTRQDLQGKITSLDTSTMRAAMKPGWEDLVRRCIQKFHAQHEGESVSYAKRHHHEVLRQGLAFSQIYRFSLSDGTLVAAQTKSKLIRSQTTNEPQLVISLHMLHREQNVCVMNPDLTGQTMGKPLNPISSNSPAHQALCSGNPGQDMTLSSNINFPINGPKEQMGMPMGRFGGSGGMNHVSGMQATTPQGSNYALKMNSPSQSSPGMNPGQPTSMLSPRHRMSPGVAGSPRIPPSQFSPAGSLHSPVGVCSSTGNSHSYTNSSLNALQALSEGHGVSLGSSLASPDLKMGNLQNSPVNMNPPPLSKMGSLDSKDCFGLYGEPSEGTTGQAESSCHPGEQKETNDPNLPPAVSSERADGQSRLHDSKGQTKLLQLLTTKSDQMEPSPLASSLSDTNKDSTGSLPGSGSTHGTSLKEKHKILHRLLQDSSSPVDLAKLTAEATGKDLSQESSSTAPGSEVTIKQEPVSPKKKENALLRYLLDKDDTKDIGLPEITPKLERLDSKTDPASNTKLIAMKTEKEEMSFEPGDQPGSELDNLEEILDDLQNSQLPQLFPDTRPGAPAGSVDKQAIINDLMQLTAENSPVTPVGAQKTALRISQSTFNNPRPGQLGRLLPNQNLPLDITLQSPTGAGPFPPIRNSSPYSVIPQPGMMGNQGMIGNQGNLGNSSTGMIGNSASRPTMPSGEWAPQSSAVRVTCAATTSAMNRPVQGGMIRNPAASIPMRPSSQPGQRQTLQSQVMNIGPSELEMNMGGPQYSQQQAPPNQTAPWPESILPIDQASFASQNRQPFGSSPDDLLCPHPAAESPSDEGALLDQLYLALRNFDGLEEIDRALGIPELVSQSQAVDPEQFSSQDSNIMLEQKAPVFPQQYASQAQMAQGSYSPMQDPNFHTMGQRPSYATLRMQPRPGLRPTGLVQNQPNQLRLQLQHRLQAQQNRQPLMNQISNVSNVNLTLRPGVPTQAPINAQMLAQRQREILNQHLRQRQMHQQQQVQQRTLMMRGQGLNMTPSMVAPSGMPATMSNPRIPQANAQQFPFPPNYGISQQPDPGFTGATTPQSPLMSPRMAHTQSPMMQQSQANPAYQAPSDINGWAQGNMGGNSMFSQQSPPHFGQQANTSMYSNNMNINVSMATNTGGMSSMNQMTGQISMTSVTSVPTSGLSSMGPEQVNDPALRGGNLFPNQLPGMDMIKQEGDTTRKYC

With `O=C(COC(=O)c1ccccc1C(=O)c1ccccc1)NCCc1ccccc1` the EC50 [1] was > 79.4 µM (not active), the EC50 [2] was > 260 µM (inactive) and the EC50 [3] was > 79.4 µM (not active). For the same compound, the EC50 [4] was > 79.4 µM (not active).

For `CC(C)[C@@H](CC(=O)N[C@@H]1CCCC[C@H]1C(=O)N[C@H](CC(=O)N[C@@H](CCC(=O)O)CC(=O)O)Cc1ccccc1)NC(=O)C[C@H](CO)NC(=O)[C@@H]1CCCC[C@H]1N`, the AC50 [5] was 39.8 µM (inconclusive) and the AC50 [6] was 39.8 µM (inconclusive).

For `O=C(CCCn1c(=O)[nH]c2ccc(Br)cc2c1=O)NCc1ccc(Cl)cc1`, the EC50 [1] was > 79.4 µM (not active), the EC50 [3] was > 79.4 µM (not active) and the EC50 [4] was > 79.4 µM (not active).

For `Cc1ccc2nc(-c3ccccc3Cl)cc(C(=O)Nc3cc(C)on3)c2c1`, the EC50 [7] was 3.33 µM (active), the EC50 [8] was > 160 µM (inactive) and the IC50 [9] was 45.5 µM (active).

With `COc1ccc(-n2cc(CNCCc3nc(C)c[nH]3)c(-c3ccccc3Cl)n2)cc1` the EC50 [10] was 66.1 µM (not active) and the EC50 [11] was 5.96 µM (active).

In the case of `Cc1cc(C(=O)COC(=O)CN2C(=O)NC(C)(C)C2=O)c(C)n1Cc1ccccc1`, the EC50 [12] was > 30 µM (not active).

For `Cc1cccc(Cn2c(O)c(N=NC(S)=Nc3ccccc3F)c3ccccc32)c1`, the EC50 [13] was 2.68 µM (active), the EC50 [14] was 1.09 µM (active) and the EC50 [15] was 0.663 µM (active).

For `Cc1nnc2sc(-c3csc4c3CCCC4)nn12`, the AC50 [16] was 73.6 µM (active) and the AC50 [17] was 26.3 µM (active).

In the case of `O=C1NC(=O)[C@]2(Cc3ccccc3N3CCN(c4ccccc4)CC32)C(=O)N1c1ccccc1` (stereo partly specified), the IC50 [18] was 54 µM (inactive).
